# Laboratory results from US8076487B2, “Pyridone derivative and herbicide” (Kumiai Chemical Industry Co., Ltd., priority 2006, dated 2011).
# Legend:
# Type in all cases: in vivo
# [1] = tested on: Japanese bulrush (Scirpus juncoides Roxb.); experiment: Test Example 1: herbicidal effect by soil application to paddy field; settings: paddy field soil application; active ingredient 1,000 g per 1 hectare; wettable powder added dropwise to water surface the day after sowing; examined on the 21st day after application
# Outline: (§1)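 Plants were sown in flooded (3 cm) paddy soil and evaluated for herbicidal effect 21 days after soil application in a greenhouse.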
# [2] = tested on: early watergrass (Echinochloa oryzicola Vasing); experiment: as above; settings: paddy field soil application; active ingredient 1,000 g per 1 hectare; wettable powder added dropwise to water surface the day after sowing; examined on the 21st day after application
# Outline: as §1
# [3] = tested on: heartshape false pickerelweed (Monochoria vaginalis (Burm.f.) C.Presl); experiment: as above; settings: paddy field soil application; active ingredient 1,000 g per 1 hectare; wettable powder added dropwise to water surface the day after sowing; examined on the 21st day after application
# Outline: as §1
# [4] = tested on: barnyardgrass (Echinochloa crus-galli (L.) P. Beauv. var. crus-galli); experiment: Test Example 2: herbicidal effect by soil application to upland field; settings: soil surface spray, upland field soil, 1,000 g active ingredient per hectare, 21st day after application
# Outline: (§2)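 After sowing and covering, the soil received an even aqueous spray of wettable powder at a rate of 1,000 g active ingredient/ha (1,000 L/ha). Ratings of herbicidal effect followed a standard scale 21 days post-treatment, with plants held in a greenhouse.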
# [5] = tested on: green foxtail (Setaria viridis (L.) P. Beauv.); experiment: as above; settings: soil surface spray, upland field soil, 1,000 g active ingredient per hectare, 21st day after application
# Outline: as §2
# [6] = tested on: slender amaranth (Amaranthus viridis L.); experiment: as above; settings: soil surface spray, upland field soil, 1,000 g active ingredient per hectare, 21st day after application
# Outline: as §2
# [7] = tested on: velvetleaf (Abutilon theophrasti medicus); experiment: as above; settings: soil surface spray, upland field soil, 1,000 g active ingredient per hectare, 21st day after application
# Outline: as §2
# [8] = tested on: barnyardgrass (Echinochloa crus-galli (L.) P. Beauv. var. crus-galli); experiment: Test Example 3: herbicidal effect by application to upland field (foliage treatment); settings: 14th day after application; for herbicidal effect, Barnyardgrass: foliage treatment, 1,000 g active ingredient per 1 hectare, greenhouse
# Outline: (§3)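 Upland foliage test in greenhouse pots of field soil: seedlings sprayed at two weeks post-sowing with 1,000 g/ha active ingredient (wettable powder, 1,000 L water/ha). Scored 14 d after application.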
# [9] = tested on: green foxtail (Setaria viridis (L.) P. Beauv.); experiment: as above; settings: 14th day after application; for herbicidal effect, Green Foxtail: foliage treatment, 1,000 g active ingredient per 1 hectare, greenhouse
# Outline: as §3
# [10] = tested on: slender amaranth (Amaranthus viridis L.); experiment: as above; settings: 14th day after application; for herbicidal effect, Slender Amaranth: foliage treatment, 1,000 g active ingredient per 1 hectare, greenhouse
# Outline: as §3
# [11] = tested on: velvetleaf (Abutilon theophrasti medicus); experiment: as above; settings: 14th day after application; for herbicidal effect, Velvetleaf: foliage treatment, 1,000 g active ingredient per 1 hectare, greenhouse
# Outline: as §3
# [12] = foliage treatment, plants grown two weeks, 1,000 g active ingredient per hectare
compound,measurement,setting,value
O=C1CCCC(O)=C1C(=O)c1ccc(C(F)(F)F)n(N2CCCC2)c1=O [I-177],"herbicidal effect, Scirpus juncoides Roxb.",[1],5 (90% or more of herbicidal effect and crop phytotoxicity)
same,"herbicidal effect, Echinochloa oryzicola Vasing",[2],5 (90% or more of herbicidal effect and crop phytotoxicity)
same,"herbicidal effect, Monochoria vaginalis (Burm. f.) C. Presl",[3],5 (90% or more of herbicidal effect and crop phytotoxicity)
same,"herbicidal effect (index), Barnyardgrass",[4],5 (90% or more of herbicidal effect and crop phytotoxicity)
same,"herbicidal effect (index), Green Foxtail",[5],5 (90% or more of herbicidal effect and crop phytotoxicity)
same,"herbicidal effect (index), Slender Amaranth",[6],5 (90% or more of herbicidal effect and crop phytotoxicity)
same,"herbicidal effect (index), Velvetleaf",[7],5 (90% or more of herbicidal effect and crop phytotoxicity)
same,"herbicidal effect, Barnyardgrass",[8],5 (90% or more of herbicidal effect and crop phytotoxicity)
same,"herbicidal effect, Green Foxtail",[9],4 (70 to less than 90% of herbicidal effect and crop phytotoxicity)
same,"herbicidal effect, Slender Amaranth",[10],5 (90% or more of herbicidal effect and crop phytotoxicity)
same,"herbicidal effect, Velvetleaf",[11],5 (90% or more of herbicidal effect and crop phytotoxicity)
Cc1cc(-n2c(C(F)(F)F)ccc(C(=O)C3=C(O)CCCC3=O)c2=O)no1 [I-142],"herbicidal effect, Scirpus juncoides Roxb.",[1],5 (90% or more of herbicidal effect and crop phytotoxicity)
same,"herbicidal effect, Echinochloa oryzicola Vasing",[2],5 (90% or more of herbicidal effect and crop phytotoxicity)
same,"herbicidal effect, Monochoria vaginalis (Burm. f.) C. Presl",[3],5 (90% or more of herbicidal effect and crop phytotoxicity)
same,"herbicidal effect (index), Barnyardgrass",[4],5 (90% or more of herbicidal effect and crop phytotoxicity)
same,"herbicidal effect (index), Green Foxtail",[5],5 (90% or more of herbicidal effect and crop phytotoxicity)
same,"herbicidal effect (index), Slender Amaranth",[6],5 (90% or more of herbicidal effect and crop phytotoxicity)
same,"herbicidal effect (index), Velvetleaf",[7],5 (90% or more of herbicidal effect and crop phytotoxicity)
same,"herbicidal effect, Barnyardgrass",[8],5 (90% or more of herbicidal effect and crop phytotoxicity)
same,"herbicidal effect, Green Foxtail",[9],5 (90% or more of herbicidal effect and crop phytotoxicity)
same,"herbicidal effect, Slender Amaranth",[10],5 (90% or more of herbicidal effect and crop phytotoxicity)
same,"herbicidal effect, Velvetleaf",[11],5 (90% or more of herbicidal effect and crop phytotoxicity)
CC(=O)Oc1c(C(=O)c2ccc(C(F)(F)F)n(C)c2=O)cnn1C [IV-174],"herbicidal effect, Scirpus juncoides Roxb.",[1],5 (90% or more of herbicidal effect and crop phytotoxicity)
same,"herbicidal effect, Echinochloa oryzicola Vasing",[2],5 (90% or more of herbicidal effect and crop phytotoxicity)
same,"herbicidal effect, Monochoria vaginalis (Burm. f.) C. Presl",[3],5 (90% or more of herbicidal effect and crop phytotoxicity)
same,"herbicidal effect (index), Barnyardgrass",[4],5 (90% or more of herbicidal effect and crop phytotoxicity)
same,"herbicidal effect (index), Green Foxtail",[5],5 (90% or more of herbicidal effect and crop phytotoxicity)
same,"herbicidal effect (index), Slender Amaranth",[6],5 (90% or more of herbicidal effect and crop phytotoxicity)
same,"herbicidal effect (index), Velvetleaf",[7],5 (90% or more of herbicidal effect and crop phytotoxicity)
same,"herbicidal effect, Barnyardgrass",[8],5 (90% or more of herbicidal effect and crop phytotoxicity)
same,"herbicidal effect, Green Foxtail",[9],5 (90% or more of herbicidal effect and crop phytotoxicity)
same,"herbicidal effect, Slender Amaranth",[10],5 (90% or more of herbicidal effect and crop phytotoxicity)
same,"herbicidal effect, Velvetleaf",[11],5 (90% or more of herbicidal effect and crop phytotoxicity)
CC(C)CNn1c(C(F)(F)F)ccc(C(=O)C2=C(O)CCCC2=O)c1=O [I-162],"herbicidal effect, Scirpus juncoides Roxb.",[1],5 (90% or more of herbicidal effect and crop phytotoxicity)
same,"herbicidal effect, Echinochloa oryzicola Vasing",[2],5 (90% or more of herbicidal effect and crop phytotoxicity)
same,"herbicidal effect, Monochoria vaginalis (Burm. f.) C. Presl",[3],5 (90% or more of herbicidal effect and crop phytotoxicity)
same,"herbicidal effect (index), Barnyardgrass",[4],5 (90% or more of herbicidal effect and crop phytotoxicity)
same,"herbicidal effect (index), Green Foxtail",[5],5 (90% or more of herbicidal effect and crop phytotoxicity)
same,"herbicidal effect (index), Slender Amaranth",[6],4 (70 to less than 90% of herbicidal effect and crop phytotoxicity)
same,"herbicidal effect (index), Velvetleaf",[7],5 (90% or more of herbicidal effect and crop phytotoxicity)
same,"herbicidal effect, Barnyardgrass",[8],5 (90% or more of herbicidal effect and crop phytotoxicity)
same,"herbicidal effect, Green Foxtail",[9],5 (90% or more of herbicidal effect and crop phytotoxicity)
same,"herbicidal effect, Slender Amaranth",[10],5 (90% or more of herbicidal effect and crop phytotoxicity)
same,"herbicidal effect, Velvetleaf",[11],5 (90% or more of herbicidal effect and crop phytotoxicity)
COc1ccc(-n2c(C(F)(F)F)ccc(C(=O)C3=C(O)CCCC3=O)c2=O)cc1Cl [I-110],"herbicidal effect, Scirpus juncoides Roxb.",[1],5 (90% or more of herbicidal effect and crop phytotoxicity)
same,"herbicidal effect, Echinochloa oryzicola Vasing",[2],5 (90% or more of herbicidal effect and crop phytotoxicity)
same,"herbicidal effect, Monochoria vaginalis (Burm. f.) C. Presl",[3],5 (90% or more of herbicidal effect and crop phytotoxicity)
same,"herbicidal effect (index), Barnyardgrass",[4],5 (90% or more of herbicidal effect and crop phytotoxicity)
same,"herbicidal effect (index), Green Foxtail",[5],4 (70 to less than 90% of herbicidal effect and crop phytotoxicity)
same,"herbicidal effect (index), Slender Amaranth",[6],5 (90% or more of herbicidal effect and crop phytotoxicity)
same,"herbicidal effect (index), Velvetleaf",[7],5 (90% or more of herbicidal effect and crop phytotoxicity)
same,"herbicidal effect, Barnyardgrass",[8],5 (90% or more of herbicidal effect and crop phytotoxicity)
same,"herbicidal effect, Green Foxtail",[9],3 (50 to less than 70% of herbicidal effect and crop phytotoxicity)
same,"herbicidal effect, Slender Amaranth",[10],5 (90% or more of herbicidal effect and crop phytotoxicity)
same,"herbicidal effect, Velvetleaf",[11],4 (70 to less than 90% of herbicidal effect and crop phytotoxicity)
CNn1c(C(F)(F)F)ccc(C(=O)c2cnn(C)c2O)c1=O [IV-146],"herbicidal effect, Scirpus juncoides Roxb.",[1],5 (90% or more of herbicidal effect and crop phytotoxicity)
same,"herbicidal effect, Echinochloa oryzicola Vasing",[2],5 (90% or more of herbicidal effect and crop phytotoxicity)
same,"herbicidal effect, Monochoria vaginalis (Burm. f.) C. Presl",[3],5 (90% or more of herbicidal effect and crop phytotoxicity)
same,"herbicidal effect (index), Barnyardgrass",[4],5 (90% or more of herbicidal effect and crop phytotoxicity)
same,"herbicidal effect (index), Green Foxtail",[5],5 (90% or more of herbicidal effect and crop phytotoxicity)
same,"herbicidal effect (index), Slender Amaranth",[6],5 (90% or more of herbicidal effect and crop phytotoxicity)
same,"herbicidal effect (index), Velvetleaf",[7],5 (90% or more of herbicidal effect and crop phytotoxicity)
same,"herbicidal effect, Barnyardgrass",[8],5 (90% or more of herbicidal effect and crop phytotoxicity)
same,"herbicidal effect, Green Foxtail",[9],5 (90% or more of herbicidal effect and crop phytotoxicity)
same,"herbicidal effect, Slender Amaranth",[10],5 (90% or more of herbicidal effect and crop phytotoxicity)
same,"herbicidal effect, Velvetleaf",[11],5 (90% or more of herbicidal effect and crop phytotoxicity)
CCCn1c(C(F)(F)F)ccc(C(=O)C2=C(O)C3CCC(C3)C2=O)c1=O (stereo not shown) [III-3],"herbicidal effect, Scirpus juncoides Roxb.",[1],5 (90% or more of herbicidal effect and crop phytotoxicity)
same,"herbicidal effect, Echinochloa oryzicola Vasing",[2],5 (90% or more of herbicidal effect and crop phytotoxicity)
same,"herbicidal effect, Monochoria vaginalis (Burm. f.) C. Presl",[3],5 (90% or more of herbicidal effect and crop phytotoxicity)
same,"herbicidal effect (index), Barnyardgrass",[4],5 (90% or more of herbicidal effect and crop phytotoxicity)
same,"herbicidal effect (index), Green Foxtail",[5],5 (90% or more of herbicidal effect and crop phytotoxicity)
same,"herbicidal effect (index), Slender Amaranth",[6],5 (90% or more of herbicidal effect and crop phytotoxicity)
same,"herbicidal effect (index), Velvetleaf",[7],5 (90% or more of herbicidal effect and crop phytotoxicity)
same,"herbicidal effect, Barnyardgrass",[8],5 (90% or more of herbicidal effect and crop phytotoxicity)
same,"herbicidal effect, Green Foxtail",[9],5 (90% or more of herbicidal effect and crop phytotoxicity)
same,"herbicidal effect, Slender Amaranth",[10],5 (90% or more of herbicidal effect and crop phytotoxicity)
same,"herbicidal effect, Velvetleaf",[11],5 (90% or more of herbicidal effect and crop phytotoxicity)
O=C1CCCC(O)=C1C(=O)c1ccc(C(F)(F)F)n(-c2cc([N+](=O)[O-])ccc2F)c1=O [I-107],"herbicidal effect, Scirpus juncoides Roxb.",[1],5 (90% or more of herbicidal effect and crop phytotoxicity)
same,"herbicidal effect, Echinochloa oryzicola Vasing",[2],5 (90% or more of herbicidal effect and crop phytotoxicity)
same,"herbicidal effect, Monochoria vaginalis (Burm. f.) C. Presl",[3],5 (90% or more of herbicidal effect and crop phytotoxicity)
same,"herbicidal effect (index), Barnyardgrass",[4],5 (90% or more of herbicidal effect and crop phytotoxicity)
same,"herbicidal effect (index), Green Foxtail",[5],5 (90% or more of herbicidal effect and crop phytotoxicity)
same,"herbicidal effect (index), Slender Amaranth",[6],5 (90% or more of herbicidal effect and crop phytotoxicity)
same,"herbicidal effect (index), Velvetleaf",[7],5 (90% or more of herbicidal effect and crop phytotoxicity)
same,"herbicidal effect (index), Barnyardgrass",[8]; [12],5 (90% or more of herbicidal effect and crop phytotoxicity)
same,"herbicidal effect (index), Green Foxtail",[9]; [12],3 (50 to less than 70% of herbicidal effect and crop phytotoxicity)
same,"herbicidal effect (index), Slender Amaranth",[10]; [12],5 (90% or more of herbicidal effect and crop phytotoxicity)
same,"herbicidal effect (index), Velvetleaf",[11]; [12],5 (90% or more of herbicidal effect and crop phytotoxicity)
